Laboratory results reported in US20020086876A1, “Treatment of anti-depression drug-induced sexual dysfunction with apomorphine” (priority 2000, published 2002).

Tested on: sexual dysfunction in male patients taking selective serotonin reuptake inhibitors
Assay: Crossover home-use trial of sublingual apomorphine in male patients taking SSRIs (sexual function questionnaire)
Format: in vivo, human (male patients)
Conditions: male patients on SSRI's
Description: A crossover study of 1500 patients in a home-use trial of apomorphine on male patients was performed.
In the crossover study, a 2-4 week baseline period was used to evaluate subjects. After this time, during an initial four week treatment period, subjects received either a placebo or apomorphine, without knowing whether or not they had received the active medication. The dosage was either 2, 4, 5 or 6 mg. This initial treatment period was followed by a 24-96 hour washout period, in which no medication was taken. Subsequently, a second four week treatment period, subjects who previously had received apomorphine, were given a placebo, and subjects who previously had received the placebo were given apomorphine. Subject were to attempt coitus once each week after taking a single tablet of apomorphine sublingually. After each attempt, the subject and their partner completed a sexual function questionnaire which was later evaluated and used for final statistical analysis. In the analysis, the data for patients receiving 2, 4, 5 or 6 mg dosages was pooled.

Structure (SMILES): CN1CCc2cccc3c2[C@H]1Cc1ccc(O)c(O)c1-3 [apomorphine, (R)-5,6,6a,7-tetrahydro-6-methyl-4H-dibenzo-[de,g]quinoline-10,11-diol]
- patients on SSRI drugs able to have intercourse after apomorphine, relative to placebo (apomorphine versus placebo): twice as many patients on SSRI drugs were able to have intercourse
- attempts successful: attempt resulted in intercourse (single sublingual tablet, pooled 2, 4, 5 or 6 mg dosages, four week treatment period, placebo 23.4%): 47.6%
- attempts successful: erection firm enough for intercourse attained (single sublingual tablet, pooled 2, 4, 5 or 6 mg dosages, four week treatment period, placebo 26%): 48%
